Reference: patent US7585895B2, “Therapeutic substituted cyclopentanes” (Allergan, Inc., priority 2005, dated 2009)

Assays:
Type in all cases: cell-based
hIP = biological target: T1, hIP (Homo sapiens, UniProt P43119); assay: FLIPR calcium signal, IP; conditions: HEK-293(EBNA); for EC50: read-out: Ca2+ Signal-EC50 (nM) IP
T1 construct: expressed in transfected cells
Description: (§1) HEK-293(EBNA) cells, stably expressing one type or subtype of recombinant human prostaglandin receptors (prostaglandin receptors expressed: hDP/Gqs5; hEP1; hEP2/Gqs5; hEP3A/Gqi5; hEP4/Gqs5; hFP; hIP; hTP), were cultured in 100 mm culture dishes in high-glucose DMEM medium containing 10% fetal bovine serum, 2 mM 1-glutamine, 250 μg/ml geneticin (G418) and 200 μg/ml hygromycin B as selection markers, and 100 units/ml penicillin G, 100 μg/ml streptomycin and 0.25 μg/ml amphotericin B.
(§2) Cells were seeded at a density of 5×10^4 cells per well in Biocoat® Poly-D-lysine-coated black-wall, clear-bottom 96-well plates (Becton-Dickinson) and allowed to attach overnight in an incubator at 37° C. Cells were then washed two times with HBSS-HEPES buffer (Hanks Balanced Salt Solution without bicarbonate and phenol red, 20 mM HEPES, pH 7.4) using a Denley Cellwash plate washer (Labsystems). After 45 minutes of dye-loading in the dark, using the calcium-sensitive dye Fluo-4 AM at a final concentration of 2 μM, plates were washed four times with HBSS-HEPES buffer to remove excess dye leaving 100 μl in each well. Plates were re-equilibrated to 37° C. for a few minutes.
(§3) Cells were excited with an Argon laser at 488 nm, and emission was measured through a 510-570 nm bandwidth emission filter (FLIPR™, Molecular Devices, Sunnyvale, Calif.). Drug solution was added in a 50 μl volume to each well to give the desired final concentration. The peak increase in fluorescence intensity was recorded for each well. On each plate, four wells each served as negative (HBSS-HEPES buffer) and positive controls (standard agonists: BW245C (hDP); PGE2 (HEP1; hEP2/Gqs5; hEP3A/Gqi5; hEP4/Gqs5); PGF2α (hFP); carbacyclin (hIP); U-46619 (hTP), depending on receptor). The peak fluorescence change in each drug-containing well was then expressed relative to the controls.
(§4) Compounds were tested in a high-throughput (HTS) or concentration-response (CoRe) format. In the HTS format, forty-four compounds per plate were examined in duplicates at a concentration of 10^−5 M. To generate concentration-response curves, four compounds per plate were tested in duplicates in a concentration range between 10^−5 and 10^−11 M. The duplicate values were averaged. In either, HTS or CoRe format each compound was tested on at least 3 separate plates using cells from different passages to give an n≧3.

hEP3A/Gqi5 = biological target: T2, hEP3A/Gqi5 (Homo sapiens, UniProt P43115); assay: FLIPR calcium signal, EP3; conditions: HEK-293(EBNA); for EC50: read-out: Ca2+ Signal-EC50 (nM) EP3
T2 construct: expressed in transfected cells
T2 sequence (P43115 1-390): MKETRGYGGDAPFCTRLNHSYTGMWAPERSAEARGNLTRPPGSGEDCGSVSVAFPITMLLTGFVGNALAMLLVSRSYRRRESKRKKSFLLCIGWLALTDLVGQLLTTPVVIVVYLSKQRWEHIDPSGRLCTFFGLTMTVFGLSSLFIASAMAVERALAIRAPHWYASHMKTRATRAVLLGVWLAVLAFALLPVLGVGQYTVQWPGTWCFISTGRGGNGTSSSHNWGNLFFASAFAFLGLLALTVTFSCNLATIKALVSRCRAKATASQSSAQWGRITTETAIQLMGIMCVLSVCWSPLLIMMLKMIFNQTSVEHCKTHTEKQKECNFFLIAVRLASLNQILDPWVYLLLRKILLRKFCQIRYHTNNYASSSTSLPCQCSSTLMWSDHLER
Description: as §1, §2, §3, §4

hDP/Gqs5 = biological target: T3, hDP/Gqs5 (Homo sapiens, UniProt Q13258); assay: FLIPR calcium signal, DP; conditions: HEK-293(EBNA)
T3 construct: expressed in transfected cells
T3 sequence (Q13258 1-359): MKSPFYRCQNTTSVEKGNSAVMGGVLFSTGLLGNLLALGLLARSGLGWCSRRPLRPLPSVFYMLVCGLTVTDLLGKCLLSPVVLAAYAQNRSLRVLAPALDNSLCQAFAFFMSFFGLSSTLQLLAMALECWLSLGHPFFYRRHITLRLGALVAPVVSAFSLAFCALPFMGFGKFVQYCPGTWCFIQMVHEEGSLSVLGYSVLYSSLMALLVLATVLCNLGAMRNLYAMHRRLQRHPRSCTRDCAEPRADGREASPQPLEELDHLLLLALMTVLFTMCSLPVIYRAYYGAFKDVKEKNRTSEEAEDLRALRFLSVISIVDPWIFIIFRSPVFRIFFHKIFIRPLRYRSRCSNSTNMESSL
Description: as §1, §2, §3, §4

T1 sequence (P43119 whole entry): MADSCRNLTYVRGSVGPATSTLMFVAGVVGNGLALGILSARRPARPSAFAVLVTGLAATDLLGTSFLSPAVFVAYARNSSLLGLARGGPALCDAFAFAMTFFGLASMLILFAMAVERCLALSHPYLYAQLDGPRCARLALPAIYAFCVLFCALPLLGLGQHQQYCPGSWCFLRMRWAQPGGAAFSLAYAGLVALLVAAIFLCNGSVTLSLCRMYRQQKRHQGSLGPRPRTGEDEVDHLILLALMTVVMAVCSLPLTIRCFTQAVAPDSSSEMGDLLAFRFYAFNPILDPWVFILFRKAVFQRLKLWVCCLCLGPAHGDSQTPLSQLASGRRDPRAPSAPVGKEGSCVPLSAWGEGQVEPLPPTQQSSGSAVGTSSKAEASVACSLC

Compound | Ca2+ Signal-EC50 (nM) IP (hIP) | EC50 (hEP3A/Gqi5) | Ca2+ Signal-EC50 (nM) DP (hDP/Gqs5) | EC50 (hIP) | Ca2+ Signal-EC50 (nM) EP3 (hEP3A/Gqi5)
CCCCCC(O)c1ccc([C@@H]2[C@@H](C/C=C\CCCC(=O)O)[C@H](F)C[C@H]2O)cc1 (mixture of isomers) [Entry 8, (Z)-7-{(1R,2S,3R,5R)-5-Fluoro-3-hydroxy-2-[4-(1-hydroxy-hexyl)-phenyl]-cyclopentyl}-hept-5-enoic acid] |  | 1450 nM | not active | 10100 nM | 
CCCCCC(O)c1ccc([C@@H]2[C@@H](C/C=C\CCCC(=O)O)[C@@H](Cl)C[C@H]2O)cc1 (stereo partly drawn) [Entry 9, (Z)-7-{(1R,2S,3R,5S)-5-Chloro-3-hydroxy-2-[4-(1-hydroxy-hexyl)-phenyl]-cyclopentyl}-hept-5-enoic acid] |  | 7230 nM | not active | 6880 nM | 
CCCCCC(O)c1ccc([C@@H]2[C@@H](C/C=C\CCCC(=O)O)[C@H](Cl)C[C@H]2O)cc1 (single isomer, unassigned) [Entry 12] | not active |  | not active |  | not active
CCCCCC(O)c1ccc([C@@H]2[C@@H](C/C=C\CCCC(=O)O)[C@H](Cl)C[C@H]2O)cc1 (single isomer, unassigned) [Entry 13] | not active | 3000 nM | not active |  | 
CCCCCC(O)c1ccc([C@@H]2[C@@H](CCCCCCC(=O)O)[C@H](Cl)C[C@H]2O)cc1 (stereo partly drawn) [Entry 14, 7-{(1R,2S,3R,5R)-5-Chloro-3-hydroxy-2-[4-(1-hydroxy-hexyl)-phenyl]-cyclopentyl}-heptanoic acid] | not active | 477 nM | not active |  | 
O=C(O)CCC/C=C\C[C@@H]1[C@@H](c2ccc(C(O)CCC3CCCCC3)cc2)[C@H](O)C[C@H]1Cl (stereo partly drawn) [Entry 15, (Z)-7-{(1R,2S,3R,5R)-5-Chloro-2-[4-(3-cyclohexyl-1-hydroxy-propyl)-phenyl]-3-hydroxy-cyclopentyl}-hept-5-enoic acid] | not active | 2220 nM | not active |  | 
CCCC1(C(O)c2cccc([C@@H]3[C@@H](Cc4cccc(CCC(=O)O)c4)[C@H](Cl)C[C@H]3O)c2)CCC1 (stereo partly drawn) [Entry 4, 3-[3-((1R,2S,3R,5R)-5-Chloro-3-hydroxy-2-{3-[hydroxy-(1-propyl-cyclobutyl)-methyl]-phenyl}-cyclopentylmethyl)-phenyl]-propionic acid] | not active |  | not active |  | not active

Second part, the molecule after the results:

Ca2+ Signal-EC50 (nM) IP (hIP) | EC50 (hEP3A/Gqi5) | Ca2+ Signal-EC50 (nM) DP (hDP/Gqs5) | EC50 (hIP) | Ca2+ Signal-EC50 (nM) EP3 (hEP3A/Gqi5) | Compound
not active | 1710 nM | not active |  |  | O=C(O)CCCCCC[C@@H]1[C@@H](c2ccc(C(O)CCC3CCCCC3)cc2)[C@H](O)C[C@H]1Cl (stereo partly drawn) [Entry 16, 7-{(1R,2S,3R,5R)-5-Chloro-2-[4-(3-cyclohexyl-1-hydroxy-propyl)-phenyl]-3-hydroxy-cyclopentyl}-heptanoic acid]
not active | 1300 nM | not active |  |  | CCCCCC(O)C(C)(C)c1ccc([C@@H]2[C@@H](C/C=C\CCCC(=O)O)[C@H](Cl)C[C@H]2O)cc1 (stereo partly drawn) [Entry 31, (Z)-7-{(1R,2S,3R,5R)-5-Chloro-3-hydroxy-2-[4-(2-hydroxy-1,1-dimethyl-heptyl)-phenyl]-cyclopentyl}-hept-5-enoic acid]
not active | 13700 nM | not active |  |  | O=C(O)CCC/C=C\C[C@@H]1[C@@H](c2ccc(C(O)CCc3ccccc3)cc2)[C@H](O)C[C@H]1Cl (stereo partly drawn) [Entry 23, (Z)-7-{(1R,2S,3R,5R)-5-Chloro-3-hydroxy-2-[4-(1-hydroxy-3-phenyl-propyl)-phenyl]-cyclopentyl}-hept-5-enoic acid]
 | 37 nM | not active | 8490 nM |  | CCCCCC(O)c1cccc([C@@H]2[C@@H](C/C=C\CCCC(=O)O)[C@H](Cl)C[C@H]2O)c1 (stereo partly drawn) [Entry 29, (Z)-7-{(1R,2S,3R,5R)-5-Chloro-3-hydroxy-2-[3-(1-hydroxy-hexyl)-phenyl]-cyclopentyl}-hept-5-enoic acid]
not active |  | not active |  | not active | CCCCCCc1ccc([C@@H]2[C@@H](C/C=C\CCCC(=O)O)[C@H](Cl)C[C@H]2O)cc1 [Entry 33, (Z)-7-[(1R,2S,3R,5R)-5-Chloro-2-(4-hexyl-phenyl)-3-hydroxy-cyclopentyl]-hept-5-enoic acid]
not active |  | not active |  | not active | O=C(O)CCC/C=C\C[C@@H]1[C@@H](c2ccc(C(O)Cc3ccccc3)cc2)[C@H](O)C[C@H]1Cl (mixture of isomers) [Entry 21, (Z)-7-{(1R,2S,3R,5R)-5-Chloro-3-hydroxy-2-[4-(1-hydroxy-2-phenyl-ethyl)-phenyl]-cyclopentyl}-hept-5-enoic acid]
not active |  | not active |  | not active | CCCC(O)c1ccc([C@@H]2[C@@H](C/C=C\CCCC(=O)O)[C@H](Cl)C[C@H]2O)cc1 (stereo partly drawn) [Entry 26, (Z)-7-{(1R,2S,3R,5R)-5-Chloro-3-hydroxy-2-[4-(1-hydroxy-butyl)-phenyl]-cyclopentyl}-hept-5-enoic acid]
 | 25 nM | not active | 3280 nM |  | CCCCCC(O)c1ccc([C@@H]2[C@@H](C/C=C\CCCC(=O)O)[C@H](Cl)C[C@@H]2O)cc1 (stereo partly drawn) [Entry 34, (Z)-7-{(1R,2S,3S,5R)-5-Chloro-3-hydroxy-2-[4-(1-hydroxy-hexyl)-phenyl]-cyclopentyl}-hept-5-enoic acid]
not active | 8830 nM | not active |  |  | O=C(O)CCCCCC[C@@H]1[C@@H](c2ccc(C(O)CCc3ccccc3)cc2)[C@H](O)C[C@H]1Cl (stereo partly drawn) [Entry 24, 7-{(1R,2S,3R,5R)-5-Chloro-3-hydroxy-2-[4-(1-hydroxy-3-phenyl-propyl)-phenyl]-cyclopentyl}-heptanoic acid]
not active | 2810 nM | not active |  |  | CCCCC(O)C(C)(C)c1ccc([C@@H]2[C@@H](C/C=C\CCCC(=O)O)[C@H](Cl)C[C@H]2O)cc1 (mixture of isomers) [Entry 32, (Z)-7-{(1R,2S,3R,5R)-5-Chloro-3-hydroxy-2-[4-(2-hydroxy-1,1-dimethyl-hexyl)-phenyl]-cyclopentyl}-hept-5-enoic acid]
 |  |  | 1650 nM | not active | O=C(O)CCC/C=C\C[C@@H]1[C@@H](c2ccc(C(O)c3ccccc3)cc2)[C@H](O)C[C@H]1Cl (stereo partly drawn) [Entry 28, (Z)-7-{(1R,2S,3R,5R)-5-Chloro-3-hydroxy-2-[4-(hydroxy-phenyl-methyl)-phenyl]-cyclopentyl}-hept-5-enoic acid]
